Test results from patent US6653529B2, “Use of the maize X112 mutant ahas 2 gene and imidazolinone herbicides for selection of transgenic monocots, maize, rice and wheat plants resistant to the imidazolinone herbicides” (BASF Aktiengesellschaft, priority 2000, dated 2003).

Tests used:
Assay type in all cases: in vivo
[1] = system: rice plants (transgenic Lines 26 and 29; Nt control); assay: Greenhouse herbicide tests on rice; settings: for effect on growth of all plants treated: transgenic and control plants
Text: We evaluated the response of transgenic rice to PURSUIT® imazethapyr application in the greenhouse. In this experiment, we included 2 transgenic lines and their untransformed counterpart (Nt). The transgenic lines, designated as Line 26 and 29, were T3 progeny derived from previously identified homozygous resistant transgenic plants containing the maize XI12 ahas2 gene driven by its own promoter. All seeds were pre-germinated in water for 2-3 days then grown in a planting mixture consisting of 1:1 soil and MetroMix 360 (The Scotts Company, Marysville, Ohio 43040) in 6-inch pots (2 seeds per pot) in the greenhouse and sprayed with PURSUIT® imazethapyr at 63, 125, or 250 g ai/ha. For post-emergence application, the plants were sprayed 15 days after seeding, at which time most plants had 3 leaves. For pre-emergence treatment, PURSUIT® imazethapyr was sprayed one day after seeding. Each treatment contained 20 plants and, and 3 replicates per treatment. One set of materials was not sprayed and used as control. The plants were grown in the greenhouse and harvested at maturity. The amount of PURSUIT® imazethapyr applied in this study (63, 125, or 250 g ai/ha) was close to 1, 2 or 4× field application rate for imi-resistant corn (refer to Table 3) since PURSUIT® imazethapyr is not currently labeled for use in rice fields. A custom designed belt sprayer was operated as described (Newhouse et al. 1992) for all herbicide applications. Five plants from each treatment were randomly chosen and individually measured for morphological traits. Means and standard deviations were calculated over three replications. Plant heights were measured from the base of the plant to the tip of the flag leaf 93 days after herbicide applications (DAH) and number of tillers per plant were counted 102-103 DAH. Data on number of panicles per plant and yield were collected after plants were harvested.
(§1) A total of 9 herbicides, 5 imidazolinones, two rice herbicides and ACCENT® (nicosulfuron) and CLASSIC® (clorimuron-ethyl) were applied in this study. Materials and methods were basically the same as described above, except that instead of 6″ pots, flats with 18 (3″×3″ per cell) cells were used, and 10-12 seeds were planted to one 3″×3″ cell. Ten plants were maintained in one cell in the post-emergence application. Each herbicide was sprayed at 4 different rates, 1, 2, 4, and 6×, as either pre or post-emergence applications with three replications per treatment. The name and amount of herbicide applied in this experiment and information relevant to their commercial applications are listed in Table 3. For simplicity and convenience, the lowest concentration used is referred as 1× rate, 2, 4 and 6× rates can be calculated as multiples of 1×.
(§2) To monitor plant response to various herbicides, data on fresh weight was collected. For pre-emergence applications, all plants from one cell were harvested 32 days after spraying (36-day old plants) and weighed. Twenty-nine days after herbicide application, 5 plants (44-day old plants) from each cell in the post-emergence application, were cut and weighed individually. Mean fresh weight for each treatment was calculated over three replications. The remaining 5 plants were grown in the greenhouse to maturity at which time, panicles of 3 plants were collected, and number of filled seeds and number of total kernels were counted to determine percentage of seed set.

transgenic rice Line 26 = assay: Response of rice plants to various herbicides, seed set in greenhouse; settings: post-emergence, 1× g ai/ha: PURSUIT 62.5, CADRE 32, ARSENAL 24, RAPTOR 32, SCEPTER 125, ACCENT 35, CLASSIC 5, AC322,140 20, LONDAX 68
Text: as §1, §2

transgenic rice Line 29 = assay: as above; settings: post-emergence, 1× g ai/ha: PURSUIT 62.5, CADRE 32, ARSENAL 24, RAPTOR 32, SCEPTER 125, ACCENT 35, CLASSIC 5, AC322,140 20, LONDAX 68
Text: as §1, §2

[2] = system: untransformed Nt rice plants; assay: as above; settings: post-emergence, 1× g ai/ha: PURSUIT 62.5, CADRE 32, ARSENAL 24, RAPTOR 32, SCEPTER 125, ACCENT 35, CLASSIC 5, AC322,140 20, LONDAX 68
Text: as §1, §2

| SMILES | % seed-set (transgenic rice Line 26; 1× rate) | No. filled seeds/3 panicles (transgenic rice Line 26; 1× rate) | Total No. of kernels/3 panicles (transgenic rice Line 26; 1× rate) | % seed-set (transgenic rice Line 26; 2× rate) | No. filled seeds/3 panicles (transgenic rice Line 26; 2× rate) | Total No. of kernels/3 panicles (transgenic rice Line 26; 2× rate) | % seed-set (transgenic rice Line 26; 4× rate) | No. filled seeds/3 panicles (transgenic rice Line 26; 4× rate) | Total No. of kernels/3 panicles (transgenic rice Line 26; 4× rate) | % seed-set (transgenic rice Line 26; 6× rate) | No. filled seeds/3 panicles (transgenic rice Line 26; 6× rate) | Total No. of kernels/3 panicles (transgenic rice Line 26; 6× rate) | % seed-set (transgenic rice Line 29; 1× rate) | No. filled seeds/3 panicles (transgenic rice Line 29; 1× rate) | Total No. of kernels/3 panicles (transgenic rice Line 29; 1× rate) | % seed-set (transgenic rice Line 29; 2× rate) | No. filled seeds/3 panicles (transgenic rice Line 29; 2× rate) | Total No. of kernels/3 panicles (transgenic rice Line 29; 2× rate) | % seed-set (transgenic rice Line 29; 4× rate) | No. filled seeds/3 panicles (transgenic rice Line 29; 4× rate) | also measured |
| --- | --- | --- | --- | --- | --- | --- | --- | --- | --- | --- | --- | --- | --- | --- | --- | --- | --- | --- | --- | --- | --- |
| COc1cc(OC)nc(NC(=O)NS(=O)(=O)Nc2ccccc2C(=O)C2CC2)n1 [AC 322,140, cyclosulfamuron] | 90% | 144 | 160 | 94% | 158 | 168 | 91% | 166 | 182 | 85% | 134 | 158 | 91% | 150 | 166 | 92% | 172 | 187 | 80% | 129 | effect on growth of all plants treated [1]: minimal effect; Total No. of kernels/3 panicles (transgenic rice Line 29; 4× rate): 160; % seed-set (transgenic rice Line 29; 6× rate): 87%; No. filled seeds/3 panicles (transgenic rice Line 29; 6× rate): 134; Total No. of kernels/3 panicles (transgenic rice Line 29; 6× rate): 154; % seed-set ([2]; 1× rate): 93%; No. filled seeds/3 panicles ([2]; 1× rate): 175; Total No. of kernels/3 panicles ([2]; 1× rate): 187; % seed-set ([2]; 2× rate): 93%; No. filled seeds/3 panicles ([2]; 2× rate): 158; Total No. of kernels/3 panicles ([2]; 2× rate): 171; % seed-set ([2]; 4× rate): 95%; No. filled seeds/3 panicles ([2]; 4× rate): 83; Total No. of kernels/3 panicles ([2]; 4× rate): 86; % seed-set ([2]; 6× rate): 98%; No. filled seeds/3 panicles ([2]; 6× rate): 118; Total No. of kernels/3 panicles ([2]; 6× rate): 121 |
| COc1cc(OC)nc(NC(=O)NS(=O)(=O)c2ncccc2C(=O)N(C)C)n1 [ACCENT ®, nicosulfuron] | 34% | 82 | 145 | 0% | 0 | 0 | 0% | 0 | 0 | 0% | 0 | 0 | 82% | 94 | 114 | 10% | 24 | 48 | 0% | 0 | effect on plant growth at 1× rates ([1]; post-emergence): greatly affected plant growth; Total No. of kernels/3 panicles (transgenic rice Line 29; 4× rate): 0; % seed-set (transgenic rice Line 29; 6× rate): 0%; No. filled seeds/3 panicles (transgenic rice Line 29; 6× rate): 0; Total No. of kernels/3 panicles (transgenic rice Line 29; 6× rate): 0; % seed-set ([2]; 1× rate): 3%; No. filled seeds/3 panicles ([2]; 1× rate): 6; Total No. of kernels/3 panicles ([2]; 1× rate): 24; % seed-set ([2]; 2× rate): 0%; No. filled seeds/3 panicles ([2]; 2× rate): 0; Total No. of kernels/3 panicles ([2]; 2× rate): 0; % seed-set ([2]; 4× rate): 0%; No. filled seeds/3 panicles ([2]; 4× rate): 0; Total No. of kernels/3 panicles ([2]; 4× rate): 0; % seed-set ([2]; 6× rate): 0%; No. filled seeds/3 panicles ([2]; 6× rate): 0; Total No. of kernels/3 panicles ([2]; 6× rate): 0 |
| CCOC(=O)c1ccccc1S(=O)(=O)NC(=O)Nc1nc(Cl)cc(OC)n1 [CLASSIC ®, chlorimuron-ethyl] | 83% | 95 | 114 | 93% | 100 | 108 | 28% | 26 | 65 | 20% | 10 | 18 | 88% | 115 | 130 | 85% | 112 | 132 | 37% | 35 | effect on plant growth at 1× rates ([1]; post-emergence): greatly affected plant growth; Total No. of kernels/3 panicles (transgenic rice Line 29; 4× rate): 45; % seed-set (transgenic rice Line 29; 6× rate): 4%; No. filled seeds/3 panicles (transgenic rice Line 29; 6× rate): 5; Total No. of kernels/3 panicles (transgenic rice Line 29; 6× rate): 14; % seed-set ([2]; 1× rate): 87%; No. filled seeds/3 panicles ([2]; 1× rate): 87; Total No. of kernels/3 panicles ([2]; 1× rate): 99; % seed-set ([2]; 2× rate): 92%; No. filled seeds/3 panicles ([2]; 2× rate): 90; Total No. of kernels/3 panicles ([2]; 2× rate): 97; % seed-set ([2]; 4× rate): 0%; No. filled seeds/3 panicles ([2]; 4× rate): 0; Total No. of kernels/3 panicles ([2]; 4× rate): 0; % seed-set ([2]; 6× rate): 0%; No. filled seeds/3 panicles ([2]; 6× rate): 0; Total No. of kernels/3 panicles ([2]; 6× rate): 0 |
| COC(=O)c1ccccc1CS(=O)(=O)NC(=O)Nc1nc(OC)cc(OC)n1 [LONDAX ®, bensulfuron-methyl] | 80% | 140 | 173 | 90% | 140 | 156 | 65% | 102 | 136 | 89% | 127 | 143 | 80% | 125 | 156 | 90% | 133 | 148 | 87% | 155 | effect on growth of all plants treated [1]: minimal effect; Total No. of kernels/3 panicles (transgenic rice Line 29; 4× rate): 177; % seed-set (transgenic rice Line 29; 6× rate): 86%; No. filled seeds/3 panicles (transgenic rice Line 29; 6× rate): 150; Total No. of kernels/3 panicles (transgenic rice Line 29; 6× rate): 175; % seed-set ([2]; 1× rate): 85%; No. filled seeds/3 panicles ([2]; 1× rate): 147; Total No. of kernels/3 panicles ([2]; 1× rate): 172; % seed-set ([2]; 2× rate): 93%; No. filled seeds/3 panicles ([2]; 2× rate): 142; Total No. of kernels/3 panicles ([2]; 2× rate): 154; % seed-set ([2]; 4× rate): 91%; No. filled seeds/3 panicles ([2]; 4× rate): 113; Total No. of kernels/3 panicles ([2]; 4× rate): 127; % seed-set ([2]; 6× rate): 96%; No. filled seeds/3 panicles ([2]; 6× rate): 109; Total No. of kernels/3 panicles ([2]; 6× rate): 114 |
| CC(C)C1(C)N=C(c2nc3ccccc3cc2C(=O)O)NC1=O (stereo not shown) [SCEPTER ®, imazaquin] | 86% | 148 | 172 | 64% | 87 | 135 | 88% | 147 | 166 | 62% | 86 | 109 | 87% | 138 | 159 | 86% | 143 | 165 | 85% | 131 | average seed set in two transgenic lines ([1]; PURSUIT, RAPTOR, CADRE, SCEPTER at all rates tested, ARSENAL 1 to 2×): about 85%; rate at which growth of transgenic plants was slightly affected ([1]; post-emergence, fresh weight and visual observation): 6 ×; rate at which growth of both transgenic lines was affected ([1]; pre-emergence): ≥ 2 ×; Total No. of kernels/3 panicles (transgenic rice Line 29; 4× rate): 155; % seed-set (transgenic rice Line 29; 6× rate): 88%; No. filled seeds/3 panicles (transgenic rice Line 29; 6× rate): 139; Total No. of kernels/3 panicles (transgenic rice Line 29; 6× rate): 159; % seed-set ([2]; 1× rate): 0%; No. filled seeds/3 panicles ([2]; 1× rate): 0; Total No. of kernels/3 panicles ([2]; 1× rate): 0; % seed-set ([2]; 2× rate): 0%; No. filled seeds/3 panicles ([2]; 2× rate): 0; Total No. of kernels/3 panicles ([2]; 2× rate): 0; % seed-set ([2]; 4× rate): 0%; No. filled seeds/3 panicles ([2]; 4× rate): 0; Total No. of kernels/3 panicles ([2]; 4× rate): 0; % seed-set ([2]; 6× rate): 0%; No. filled seeds/3 panicles ([2]; 6× rate): 0; Total No. of kernels/3 panicles ([2]; 6× rate): 0 |
